Test results: patent publication US6737383B1, “Herbicidal oxadiazolidines” (priority 1999, dated 2004)

Legend:
blackgrass = experiment: Test B pre/postemergence blackgrass; assay type: in vivo, Alopecurus myosuroides
How it was run: (§1)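 Response is a visual 0-to-10 score relative to untreated plants, where 0 means no effect and 10 means complete control, taken twelve to sixteen days after application. Treatments went onto soil at planting and onto foliage of 1- to 4-leaf plants, using a surfactant-containing non-phytotoxic solvent.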

surinam grass = experiment: Test B pre/postemergence surinam grass; assay type: in vivo, Brachiaria decumbens
How it was run: as §1

cocklebur = experiment: Test B pre/postemergence cocklebur; assay type: in vivo, Xanthium strumarium
How it was run: as §1

corn = experiment: Test B pre/postemergence corn; assay type: in vivo, Zea mays
How it was run: as §1

crabgrass = experiment: Test B pre/postemergence crabgrass; assay type: in vivo, Digitaria sanguinalis
How it was run: as §1

giant foxtail = experiment: Test B pre/postemergence giant foxtail; assay type: in vivo, Setaria faberii
How it was run: as §1

morningglory = experiment: Test B pre/postemergence morningglory; assay type: in vivo, Ipomoea hederacea
How it was run: as §1

pigweed = experiment: Test B pre/postemergence pigweed; assay type: in vivo, Amaranthus retroflexus
How it was run: as §1

rape = experiment: Test B pre/postemergence rape; assay type: in vivo, Brassica napus
How it was run: as §1

sugar beet = experiment: Test B pre/postemergence sugar beet; assay type: in vivo, Beta vulgaris
How it was run: as §1

velvetleaf = experiment: Test B pre/postemergence velvetleaf; assay type: in vivo, Abutilon theophrasti
How it was run: as §1

wheat = experiment: Test B pre/postemergence wheat; assay type: in vivo, Triticum aestivum
How it was run: as §1

purple nutsedge = experiment: Test B pre/postemergence purple nutsedge; assay type: in vivo, Cyperus rotundus; conditions: Postemergence
How it was run: as §1

rice = experiment: Test B flood test rice; assay type: in vivo, Oryza sativa
How it was run: (§2)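 Plants were grown to the 2-leaf stage before treatment with test chemical, then held in a greenhouse for twelve to sixteen days. Injury was visually rated against untreated controls on a 0–10 scale, where 0 is no effect and 10 is complete control.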

smallflower flatsedge = experiment: Test B flood test smallflower flatsedge; assay type: in vivo, Cyperus difformis
How it was run: as §2

duck salad = experiment: Test B flood test duck salad; assay type: in vivo, Heteranthera limosa
How it was run: as §2

[1] = Preemergence, Rate 62 g/ha, scale of 0 to 10 where 0 is no effect and 10 is complete control
[2] = Preemergence, Rate 250 g/ha, scale of 0 to 10 where 0 is no effect and 10 is complete control
[3] = Preemergence, Rate 500 g/ha, scale of 0 to 10 where 0 is no effect and 10 is complete control
[4] = Rate 62 g/ha, Postemergence, scale of 0 to 10 where 0 is no effect and 10 is complete control
[5] = Rate 125 g/ha, Postemergence, scale 0 to 10
[6] = Rate 125 g/ha, Preemergence, scale of 0 to 10 where 0 is no effect and 10 is complete control
[7] = Rate 500 g/ha, Postemergence, scale 0 to 10, 0 no effect, 10 complete control
[8] = Rate 62 g/ha, headed Pre-emergence (flood test species), scale 0 to 10 (0 no effect, 10 complete control)
[9] = Rate 125 g/ha, Pre-emergence, flood test species, scale 0 to 10 where 0 is no effect and 10 is complete control
[10] = Rate 250 g/ha, Pre-emergence, flood-test species, scale 0 to 10, 0 is no effect, 10 is complete control
[11] = Rate 500 g/ha, Pre-emergence, flood test species, scale 0 to 10 (0 no effect, 10 complete control)

With `CC(C)N(C(=O)n1oc(=O)n(CCC2OCCO2)c1=O)c1ccc(F)cc1` [Compound 219] the “Blackgrass plant response rating” value (blackgrass; [1]) was 7, the “Blackgrass plant response rating” value (blackgrass; [2]) was 10 and the “Plant response rating, Blackgrass” value (blackgrass; [3]) was 10. The “Blackgrass plant response rating” value (blackgrass; [4]) was 5, the “Blackgrass plant response rating” value (blackgrass; [5]) was 7 and the “Blackgrass plant response rating” value (blackgrass; [6]) was 10. For the same compound, the “Plant response rating (0 to 10; 0 is no effect, 10 is complete control), Blackgrass” value (blackgrass; Rate 250 g/ha, Postemergence) was 8, the “Blackgrass plant response rating” value (blackgrass; [7]) was 8 and the “B. signalgrass plant response rating” value (surinam grass; [1]) was 4. The “B. signalgrass plant response rating” value (surinam grass; Preemergence, Rate 250 g/ha, scale 0 to 10, 0 is no effect, 10 is complete control) was 9, the “Plant response rating, B. signalgrass” value (surinam grass; [3]) was 9 and the “B. signalgrass plant response rating” value (surinam grass; [4]) was 0. For the same compound, the “B. signalgrass plant response rating” value (surinam grass; Rate 125 g/ha, Postemergence, scale 0 (no effect) to 10 (complete control)) was 2, the “B. signalgrass plant response rating” value (surinam grass; [6]) was 6 and the “Plant response rating (0 to 10; 0 is no effect, 10 is complete control), B. signalgrass” value (surinam grass; Rate 250 g/ha, Postemergence) was 5. For the same compound, the “B. signalgrass plant response rating” value (surinam grass; [7]) was 8, the “Cocklebur plant response rating” value (cocklebur; [1]) was 0 and the “Cocklebur plant response rating” value (cocklebur; [2]) was 0. For the same compound, the “Plant response rating, Cocklebur” value (cocklebur; [3]) was 0, the “Cocklebur plant response rating” value (cocklebur; [4]) was 1 and the “Cocklebur plant response rating” value (cocklebur; [5]) was 1. The “Cocklebur plant response rating” value (cocklebur; [6]) was 0, the “Plant response rating (0 to 10; 0 is no effect, 10 is complete control), Cocklebur” value (cocklebur; Rate 250 g/ha, Postemergence) was 4 and the “Cocklebur plant response rating” value (cocklebur; [7]) was 4. The “Corn plant response rating” value (corn; [1]) was 0, the “Corn plant response rating” value (corn; [2]) was 5 and the “Plant response rating, Corn” value (corn; [3]) was 7. For the same compound, the “Corn plant response rating” value (corn; [4]) was 0, the “Corn plant response rating” value (corn; [5]) was 0 and the “Corn plant response rating” value (corn; [6]) was 0. The “Plant response rating (0 to 10; 0 is no effect, 10 is complete control), Corn” value (corn; Rate 250 g/ha, Postemergence) was 4, the “Corn plant response rating” value (corn; [7]) was 5 and the “Crabgrass plant response rating” value (crabgrass; [1]) was 5. The “Crabgrass plant response rating” value (crabgrass; [2]) was 9, the “Plant response rating, Crabgrass” value (crabgrass; [3]) was 10 and the “Crabgrass plant response rating” value (crabgrass; [4]) was 3. For the same compound, the “Crabgrass plant response rating” value (crabgrass; [5]) was 4, the “Crabgrass plant response rating” value (crabgrass; [6]) was 8 and the “Plant response rating (0 to 10; 0 is no effect, 10 is complete control), Crabgrass” value (crabgrass; Rate 250 g/ha, Postemergence) was 6. The “Crabgrass plant response rating” value (crabgrass; [7]) was 8, the “Giant foxtail plant response rating” value (giant foxtail; [1]) was 10 and the “Giant foxtail plant response rating” value (giant foxtail; [2]) was 10. The “Plant response rating, Giant foxtail” value (giant foxtail; [3]) was 10, the “Giant foxtail plant response rating” value (giant foxtail; [4]) was 6 and the “Giant foxtail plant response rating” value (giant foxtail; [5]) was 7. For the same compound, the “Giant foxtail plant response rating” value (giant foxtail; [6]) was 10, the “Plant response rating (0 to 10; 0 is no effect, 10 is complete control), Giant foxtail” value (giant foxtail; Rate 250 g/ha, Postemergence) was 8 and the “Giant foxtail plant response rating” value (giant foxtail; [7]) was 9. For the same compound, the “Morningglory plant response rating” value (morningglory; [1]) was 0, the “Morningglory plant response rating” value (morningglory; [2]) was 0 and the “Plant response rating, Morningglory” value (morningglory; [3]) was 1. For the same compound, the “Morningglory plant response rating” value (morningglory; [4]) was 6, the “Morningglory plant response rating” value (morningglory; [5]) was 6 and the “Morningglory plant response rating” value (morningglory; [6]) was 0. The “Plant response rating (0 to 10; 0 is no effect, 10 is complete control), Morningglory” value (morningglory; Rate 250 g/ha, Postemergence) was 7, the “Morningglory plant response rating” value (morningglory; [7]) was 7 and the “Redroot pigweed plant response rating” value (pigweed; [1]) was 0. The “Redroot pigweed plant response rating” value (pigweed; [2]) was 9, the “Plant response rating, Redroot pigweed” value (pigweed; [3]) was 10 and the “Redroot pigweed plant response rating” value (pigweed; [4]) was 5. For the same compound, the “Redroot pigweed plant response rating” value (pigweed; [5]) was 7, the “Redroot pigweed plant response rating” value (pigweed; [6]) was 4 and the “Plant response rating (0 to 10; 0 is no effect, 10 is complete control), Redroot pigweed” value (pigweed; Rate 250 g/ha, Postemergence) was 8. For the same compound, the “Redroot pigweed plant response rating” value (pigweed; [7]) was 8, the “Rape plant response rating” value (rape; [1]) was 0 and the “Rape plant response rating” value (rape; [2]) was 6. For the same compound, the “Plant response rating, Rape” value (rape; [3]) was 10, the “Rape plant response rating” value (rape; [4]) was 2 and the “Rape plant response rating” value (rape; [5]) was 3. For the same compound, the “Rape plant response rating” value (rape; [6]) was 0, the “Plant response rating (0 to 10; 0 is no effect, 10 is complete control), Rape” value (rape; Rate 250 g/ha, Postemergence) was 7 and the “Rape plant response rating” value (rape; [7]) was 7. For the same compound, the “Sugarbeets plant response rating” value (sugar beet; [1]) was 3, the “Sugarbeets plant response rating” value (sugar beet; [2]) was 4 and the “Plant response rating, Sugarbeets” value (sugar beet; [3]) was 8. For the same compound, the “Sugarbeets plant response rating” value (sugar beet; [4]) was 4, the “Sugarbeets plant response rating” value (sugar beet; [5]) was 4 and the “Sugarbeets plant response rating” value (sugar beet; [6]) was 4. The “Plant response rating (0 to 10; 0 is no effect, 10 is complete control), Sugarbeets” value (sugar beet; Rate 250 g/ha, Postemergence) was 4, the “Sugarbeets plant response rating” value (sugar beet; [7]) was 7 and the “Velvetleaf plant response rating” value (velvetleaf; [1]) was 3. The “Velvetleaf plant response rating” value (velvetleaf; [2]) was 7, the “Plant response rating, Velvetleaf” value (velvetleaf; [3]) was 10 and the “Velvetleaf plant response rating” value (velvetleaf; [4]) was 0. The “Velvetleaf plant response rating” value (velvetleaf; [5]) was 0, the “Velvetleaf plant response rating” value (velvetleaf; [6]) was 6 and the “Plant response rating (0 to 10; 0 is no effect, 10 is complete control), Velvetleaf” value (velvetleaf; Rate 250 g/ha, Postemergence) was 2. The “Velvetleaf plant response rating” value (velvetleaf; [7]) was 4, the “Wheat plant response rating” value (wheat; [1]) was 3 and the “Wheat plant response rating” value (wheat; [2]) was 8. For the same compound, the “Plant response rating, Wheat” value (wheat; [3]) was 9, the “Wheat plant response rating” value (wheat; [4]) was 5 and the “Wheat plant response rating” value (wheat; [5]) was 6. The “Wheat plant response rating” value (wheat; [6]) was 5, the “Plant response rating (0 to 10; 0 is no effect, 10 is complete control), Wheat” value (wheat; Rate 250 g/ha, Postemergence) was 7 and the “Wheat plant response rating” value (wheat; [7]) was 7. For the same compound, the “Nutsedge plant response rating” value (purple nutsedge; Rate 62 g/ha, scale of 0 to 10 where 0 is no effect and 10 is complete control) was 0, the “Nutsedge plant response rating” value (purple nutsedge; Rate 125 g/ha, scale 0 to 10) was 0 and the “Plant response rating (0 to 10; 0 is no effect, 10 is complete control), Nutsedge” value (purple nutsedge; Rate 250 g/ha) was 0. For the same compound, the “Nutsedge plant response rating” value (purple nutsedge; Rate 500 g/ha, scale 0 to 10, 0 no effect, 10 complete control) was 0, the “Rice plant response rating” value (rice; [8]) was 0 and the “Rice plant response rating” value (rice; [9]) was 0. The “Rice plant response rating” value (rice; [10]) was 0, the “Rice plant response rating” value (rice; [11]) was 6 and the “S. Flatsedge plant response rating” value (smallflower flatsedge; [8]) was 0. For the same compound, the “S. Flatsedge plant response rating” value (smallflower flatsedge; [9]) was 0, the “S. Flatsedge plant response rating” value (smallflower flatsedge; [10]) was 0 and the “S. Flatsedge plant response rating” value (smallflower flatsedge; [11]) was 4. For the same compound, the “Ducksalad plant response rating” value (duck salad; [8]) was 0, the “Ducksalad plant response rating” value (duck salad; [9]) was 0 and the “Ducksalad plant response rating” value (duck salad; [10]) was 0. For the same compound, the “Ducksalad plant response rating” value (duck salad; [11]) was 3.
